The series has as its target T1, EH (recombinant mouse sEH) (Mus musculus, UniProt P34914).
T1 sequence (P34914 1-554): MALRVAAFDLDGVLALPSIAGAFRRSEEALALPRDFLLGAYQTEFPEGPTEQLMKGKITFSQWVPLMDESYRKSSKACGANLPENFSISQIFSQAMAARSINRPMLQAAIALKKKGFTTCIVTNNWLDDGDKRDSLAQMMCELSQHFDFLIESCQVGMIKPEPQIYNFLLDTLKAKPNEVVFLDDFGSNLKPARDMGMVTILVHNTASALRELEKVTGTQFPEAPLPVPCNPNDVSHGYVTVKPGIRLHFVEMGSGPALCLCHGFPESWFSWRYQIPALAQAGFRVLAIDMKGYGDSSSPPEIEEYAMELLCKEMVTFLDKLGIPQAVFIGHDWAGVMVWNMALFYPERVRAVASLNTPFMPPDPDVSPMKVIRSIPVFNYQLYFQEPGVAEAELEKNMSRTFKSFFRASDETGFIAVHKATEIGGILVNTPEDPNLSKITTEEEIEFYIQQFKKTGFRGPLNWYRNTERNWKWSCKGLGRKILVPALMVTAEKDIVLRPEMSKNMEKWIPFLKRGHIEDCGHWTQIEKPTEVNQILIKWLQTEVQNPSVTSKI
Description: Effect of EH on the fluorescence of naphthyl derivatives. It is filed as binding. Particulars: ex 330 nm, EH 0–100 nM.

`O=C(Nc1ccc(O)c2ccccc12)NC1CCCCC1` [XIIa]: the “Effect of EH on fluorescence of the naphthyl derivative (in words)” value is “appearance of a new peak and a clear enhancement of fluorescence”.

Source of the values: publication PMC2861369 (Current pharmaceutical biotechnology, 2009).
